Measurements reported in US20260042764A1, “COMPOSITIONS AND METHODS FOR INHIBITION OF KRAS” (TheRas, Inc., priority 2022, published 2026).
pIC50: −log10 of the molar value.

How the values were obtained:
[1] = molecular target: T1, Avi-KRAS G12D (1-169) GppNHp/RAF1 RBD-3xFLAG (52-151) (Homo sapiens, UniProt P01116, G12D); test: Raf1-KRAS G12D-GppNHP disruption HTRF assay (Biological Example 1); type: binding
T1 construct: Avi-KRAS G12D (1-169)
Summary of the method: (§1)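 Protein mix, 1 h RT, 700 rpm; reagent mix, 1 h RT, 700 rpm; HTRF read. Buffer Tris pH 7.5/NaCl/MgCl2/BSA/Tween, 10% DMSO. Output % activity, DMSO = 100%.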

[2] = molecular target: T2, Avi-KRAS G12R (1-169) GppNHp/RAF1 RBD-3xFLAG (52-151) (Homo sapiens, UniProt P01116, G12R); test: Raf1-KRAS G12R-GppNHP disruption HTRF assay (Biological Example 1); type: binding
T2 construct: Avi-KRAS G12R (1-169)
Summary of the method: as §1

[3] = molecular target: T3, Avi-KRAS G12V (1-169) GppNHp/RAF1 RBD-3xFLAG (52-151) (Homo sapiens, UniProt P01116, G12V); test: Raf1-KRAS G12V-GppNHP disruption HTRF assay (Biological Example 1); type: binding
T3 construct: Avi-KRAS G12V (1-169)
Summary of the method: as §1

[4] = molecular target: T4, Avi-KRAS WT (1-169) GppNHp/RAF1 RBD-3xFLAG (52-151) (Homo sapiens, UniProt P01116); test: Raf1-KRAS WT-GppNHP disruption HTRF assay (Biological Example 1); type: binding
T4 construct: Avi-KRAS WT (1-169)
Summary of the method: as §1

[5] = system: GP2d cells (KRAS G12D); test: Cell-based pERK HTRF assay in GP2d cell (Biological Example 2); conditions: GP2d (KRAS G12D) cells, pERK HTRF
Summary of the method: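 Phospho-ERK in lysed cells was detected by HTRF using Eu cryptate and d2 antibodies, read between 4 and 24 h at room temperature. Prior to lysis, KRAS G12D GP2d cells, seeded the day before in DMEM with 10% FBS, were exposed to compounds for 60 min. Compounds were tested as 9-point half-log curves from 1 μM or 100 nM top, with 0.25% DMSO.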

[6] = system: SW620 cells (KRAS G12V); test: Cell-based pERK HTRF assay in SW620 cell (Biological Example 4); conditions: pERK HTRF
Summary of the method: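 SW620 seeded in RPMI/10% FBS, next day dosed 4 h (top 1 μM, half-log, 9 pts, 0.25% DMSO). Lysed, pERK by d2/Eu cryptate HTRF, 4–24 h RT, 615 nm read.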

[7] = Homo sapiens, SW-620, SW620 (KRAS G12V) cells
[8] = KRAS G12D, GppNHp-loaded, class symbols
[9] = KRAS G12R, GppNHp-loaded, class symbols
[10] = KRAS G12V, GppNHp-loaded, class symbols
[11] = KRAS WT, GppNHp-loaded, class symbols
[12] = Homo sapiens, SW-620, SW620 (KRAS G12V) cells, class symbols

T3 sequence (P01116 1-169 isoform P01116-2 G12V): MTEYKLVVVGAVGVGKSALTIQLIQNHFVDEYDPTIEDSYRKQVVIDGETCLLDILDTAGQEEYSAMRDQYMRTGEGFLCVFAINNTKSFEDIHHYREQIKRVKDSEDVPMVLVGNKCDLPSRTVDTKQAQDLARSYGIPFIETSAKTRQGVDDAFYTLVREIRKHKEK
T2 sequence (P01116 1-169 isoform P01116-2 G12R): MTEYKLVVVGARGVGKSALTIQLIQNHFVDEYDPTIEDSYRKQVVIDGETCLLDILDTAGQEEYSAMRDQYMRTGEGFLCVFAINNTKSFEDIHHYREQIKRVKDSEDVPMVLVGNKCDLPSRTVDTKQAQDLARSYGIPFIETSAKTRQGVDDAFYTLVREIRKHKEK
T4 sequence (P01116 1-169 isoform P01116-2): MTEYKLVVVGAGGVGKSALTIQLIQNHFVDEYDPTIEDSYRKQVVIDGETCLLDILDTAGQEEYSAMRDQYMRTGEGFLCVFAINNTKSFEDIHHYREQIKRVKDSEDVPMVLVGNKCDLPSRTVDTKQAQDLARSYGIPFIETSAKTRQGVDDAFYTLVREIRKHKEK
T1 sequence (P01116 1-169 isoform P01116-2 G12D): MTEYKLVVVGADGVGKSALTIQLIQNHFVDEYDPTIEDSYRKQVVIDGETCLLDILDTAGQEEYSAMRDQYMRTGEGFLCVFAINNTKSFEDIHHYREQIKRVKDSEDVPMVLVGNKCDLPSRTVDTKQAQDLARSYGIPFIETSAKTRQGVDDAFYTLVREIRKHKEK

| pIC50 ([1]; KRAS G12D-GppNHp/RAF1 RBD HTRF) | pIC50 ([2]; KRAS G12R-GppNHp/RAF1 RBD HTRF) | pIC50 ([3]; KRAS G12V-GppNHp/RAF1 RBD HTRF) | pIC50 ([4]; KRAS WT-GppNHp/RAF1 RBD HTRF) | pIC50 ([5]; GP2d) | pIC50 [6, 7] | pIC50 [1, 8] | pIC50 [2, 9] | pIC50 [3, 10] | pIC50 [4, 11] | SMILES | other results |
| --- | --- | --- | --- | --- | --- | --- | --- | --- | --- | --- | --- |
| 6.00 to 7.00 | 5.00 to 6.00 | 5.00 to 6.00 | 5.00 to 6.00 | > 7.00 | > 7.00 |  |  |  |  | CCC(=O)N1CC[C@](C)(N(C)c2nc(OC[C@@]34CCCN3C[C@H](F)C4)nc3c(F)c(-c4ccc(F)c5sc(N)c(C#N)c45)c(C(F)(F)F)cc23)C1 [Compound 506] |  |
|  |  |  |  |  |  | 5.00 to 6.00 | 5.00 to 6.00 | 5.00 to 6.00 | 5.00 to 6.00 | N#Cc1c(N)sc2c(F)ccc(-c3c(C(F)(F)F)cc4c(N5C[C@H]6C[C@@H]5CO6)nc(OC[C@]56C[C@@H](F)CN5CC5(CC5)C6)nc4c3F)c12 [Compound 595] | pIC50 ([5]; GP2d, class symbols): > 7.00; pIC50 [6, 12]: > 7.00 |
|  |  |  |  |  |  | > 7.00 | > 7.00 | > 7.00 | > 7.00 | CCN(c1nc(OC[C@@]23CCCN2C[C@H](F)C3)nc2c(F)c(-c3ccc(F)c4sc(N)c(C#N)c34)c(C(F)(F)F)cc12)[C@H]1CCN(C(=O)OC2CCN(C(C)=O)CC2)C1 (atropisomer, axis not shown) [Compound 720] | pIC50 ([5]; GP2d, class symbols): > 7.00; pIC50 [6, 12]: > 7.00 |
|  |  |  |  |  |  | > 7.00 | 6.00 to 7.00 | 6.00 to 7.00 | 6.00 to 7.00 | N#Cc1c(N)sc2c(F)ccc(-c3c(C(F)(F)F)cc4c(N(C5CC5)[C@H]5CCN(C(=O)[C@@H]6CC6(F)F)C5)nc(OC[C@@]56CCCN5C[C@H](F)C6)nc4c3F)c12 (atropisomer, axis not shown) [Compound 779] | pIC50 ([5]; GP2d, class symbols): > 7.00; pIC50 [6, 12]: > 7.00 |
|  |  |  |  |  |  | 5.00 to 6.00 | 5.00 to 6.00 | 5.00 to 6.00 | < 5.00 | CC1c2cc(C(=O)N(C)C)nn2CCN1c1nc(OCC23CCCN2CC(F)C3)nc2c(F)c(-c3ccc(F)c4sc(N)c(C#N)c34)c(C(F)(F)F)cc12 (stereo not drawn) [Compound 701] | pIC50 ([5]; class symbols): > 7.00; pIC50 ([6]; SW620 (KRAS G12V) cells, class symbols): > 7.00 |
| 6.00 to 7.00 | 6.00 to 7.00 | 6.00 to 7.00 | 6.00 to 7.00 | > 7.00 | > 7.00 |  |  |  |  | CN1C[C@@H](N(C)c2nc(OC[C@@]34CCCN3C[C@H](F)C4)nc3c(F)c(-c4ccc(F)c5sc(N)c(C#N)c45)c(C(F)(F)F)cc23)CC1=O [Compound 338] |  |
| 5.00 to 6.00 | 5.00 to 6.00 | 5.00 to 6.00 | 6.00 to 7.00 | 6.00 to 7.00 | 6.00 to 7.00 |  |  |  |  | CC[C@@H]1[C@H](N(C)c2nc(OC[C@@]34CCCN3C[C@H](F)C4)nc3c(F)c(-c4ccc(F)c5sc(N)c(C#N)c45)c(C(F)(F)F)cc23)CCN1C(=O)C1CC1 [Compound 434] |  |
|  |  |  |  |  |  |  |  |  |  | N#Cc1c(N)sc2c(F)ccc(-c3c(C(F)(F)F)cc4c(N5CC6CC(C5)O6)nc(OC[C@@]56CCCN5C[C@H](F)C6)nc4c3F)c12 (single isomer, unassigned) [Compound 276] | pIC50 ([1]; KRAS G12D, GppNHp-loaded, Table 11): 5.00 to 6.00; pIC50 ([2]; KRAS G12R, GppNHp-loaded, Table 11): 5.00 to 6.00; pIC50 ([3]; KRAS G12V, GppNHp-loaded, Table 11): < 5.00; pIC50 ([4]; KRAS WT, GppNHp-loaded, Table 11): 5.00 to 6.00; pIC50 [5]: < 6.00; pIC50 ([6]; SW620 (KRAS G12V) cells): 6.00 to 7.00 |
| 6.00 to 7.00 | 6.00 to 7.00 | 6.00 to 7.00 | 6.00 to 7.00 | > 7.00 | > 7.00 |  |  |  |  | C[C@@H]1CN(c2nc(OC[C@@]34CCCN3C[C@H](F)C4)nc3c(F)c(-c4ccc(F)c5sc(N)c(C#N)c45)c(C(F)(F)F)cc23)Cc2cc(C(=O)N(C)C)nn21 [Compound 423] |  |

| SMILES | pIC50 ([1]; KRAS G12D-GppNHp/RAF1 RBD HTRF) | pIC50 ([2]; KRAS G12R-GppNHp/RAF1 RBD HTRF) | pIC50 ([3]; KRAS G12V-GppNHp/RAF1 RBD HTRF) | pIC50 ([4]; KRAS WT-GppNHp/RAF1 RBD HTRF) | pIC50 ([5]; GP2d) | pIC50 [6, 7] | pIC50 [1, 8] | pIC50 [2, 9] | pIC50 [3, 10] | pIC50 [4, 11] | other results |
| --- | --- | --- | --- | --- | --- | --- | --- | --- | --- | --- | --- |
| N#Cc1c(N)sc2c(F)ccc(-c3c(C(F)(F)F)cc4c(N5C6CCC5CS(=O)(=O)C6)nc(OC[C@@]56CCCN5C[C@H](F)C6)nc4c3F)c12 [Compound 320] | 6.00 to 7.00 | 5.00 to 6.00 | 5.00 to 6.00 | 6.00 to 7.00 | > 7.00 | > 7.00 |  |  |  |  |  |
| CC(=O)N1C2CCC1CN(c1nc(OC[C@@]34CCCN3C[C@H](F)C4)nc3c(F)c(-c4ccc(F)c5sc(N)c(C#N)c45)c(C(F)(F)F)cc13)C2 [Compound 438] | 6.00 to 7.00 | 6.00 to 7.00 | 5.00 to 6.00 | 6.00 to 7.00 | > 7.00 | > 7.00 |  |  |  |  |  |
